Data from ChEMBL document CHEMBL2069252, “Pyrazole diaminopyrimidines as dual inhibitors of KDR and Aurora B kinases” (Bioorg Med Chem Lett, 2012).
Activity calls are given as the source filed them. The rule behind the calls is not given here.

Columns and labels:
[1] = target: Fibroblast growth factor receptor 2 (Homo sapiens, UniProt P21802); test: Inhibition of FGFR2 by TR-FRET analysis
[2] = target: T1, Protein kinase C epsilon type (Homo sapiens, UniProt Q02156); test: Inhibition of PKCepsilon by TR-FRET analysis
T1 sequence (Q02156 whole entry): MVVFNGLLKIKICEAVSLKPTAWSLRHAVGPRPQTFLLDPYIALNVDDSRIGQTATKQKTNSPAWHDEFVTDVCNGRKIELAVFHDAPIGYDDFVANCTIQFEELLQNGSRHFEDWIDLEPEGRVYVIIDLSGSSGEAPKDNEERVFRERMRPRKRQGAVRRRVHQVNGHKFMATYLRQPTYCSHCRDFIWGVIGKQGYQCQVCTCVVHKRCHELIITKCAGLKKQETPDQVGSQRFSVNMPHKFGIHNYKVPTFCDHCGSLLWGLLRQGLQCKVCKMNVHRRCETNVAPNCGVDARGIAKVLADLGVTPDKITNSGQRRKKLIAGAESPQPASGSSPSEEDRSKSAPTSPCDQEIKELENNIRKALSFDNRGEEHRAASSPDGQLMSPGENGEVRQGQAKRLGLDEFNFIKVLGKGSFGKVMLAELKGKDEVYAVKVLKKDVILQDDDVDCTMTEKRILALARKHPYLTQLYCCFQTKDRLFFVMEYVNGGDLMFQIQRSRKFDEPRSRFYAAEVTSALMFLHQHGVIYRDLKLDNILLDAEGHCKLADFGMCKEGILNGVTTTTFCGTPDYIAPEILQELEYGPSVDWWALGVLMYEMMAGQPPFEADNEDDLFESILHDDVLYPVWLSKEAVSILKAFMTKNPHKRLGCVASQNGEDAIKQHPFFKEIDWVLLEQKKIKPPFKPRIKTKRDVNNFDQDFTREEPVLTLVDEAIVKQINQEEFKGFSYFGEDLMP

Wee1-like protein kinase = Wee1-like protein kinase (Homo sapiens, UniProt P30291); test: Inhibition of Wee1 by TR-FRET analysis
Wee1-like protein kinase, sequence (P30291 whole entry): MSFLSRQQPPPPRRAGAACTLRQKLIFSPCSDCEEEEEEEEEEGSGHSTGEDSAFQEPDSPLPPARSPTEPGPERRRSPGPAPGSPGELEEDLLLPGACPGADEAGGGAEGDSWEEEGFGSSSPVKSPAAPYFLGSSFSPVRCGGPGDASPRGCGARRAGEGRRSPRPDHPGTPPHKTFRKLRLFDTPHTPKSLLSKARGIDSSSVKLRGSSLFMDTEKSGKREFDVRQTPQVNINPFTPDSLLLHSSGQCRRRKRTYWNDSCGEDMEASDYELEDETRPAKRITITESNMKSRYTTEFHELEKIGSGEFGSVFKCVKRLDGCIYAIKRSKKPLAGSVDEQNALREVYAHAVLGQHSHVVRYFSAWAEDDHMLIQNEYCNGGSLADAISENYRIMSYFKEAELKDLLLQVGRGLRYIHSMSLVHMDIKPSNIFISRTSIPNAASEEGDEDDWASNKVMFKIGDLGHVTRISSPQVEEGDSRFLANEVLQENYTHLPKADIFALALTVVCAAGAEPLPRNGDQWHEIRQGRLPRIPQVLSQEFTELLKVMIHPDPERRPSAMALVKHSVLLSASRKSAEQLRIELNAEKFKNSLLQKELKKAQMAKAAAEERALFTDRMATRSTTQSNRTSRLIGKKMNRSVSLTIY

NCI-H1299 = test: Cell cycle arrest in human NCI-H1299 cells assessed as induction of polyploidy after 48 hrs by Hoechst staining-based fluorescence microscopic analysis; format: functional; conditions: NCI-H1299, 48 h
Mus musculus [3] = test: Toxicity in mouse xenografted with human DOHH2 cells assessed as weight loss at 10 mg/kg, ip administered Q7d for 3 weeks; conditions: in vivo, 504 h
Mus musculus [4] = test: Toxicity in mouse xenografted with human DOHH2 cells assessed as mortality at 10 mg/kg, ip administered Q7d for 3 weeks; conditions: in vivo, 504 h
Aurora kinase A = target: T2, Aurora kinase A (Homo sapiens, UniProt O14965); test: Inhibition of Aurora A by TR-FRET analysis
T2 sequence (O14965 whole entry): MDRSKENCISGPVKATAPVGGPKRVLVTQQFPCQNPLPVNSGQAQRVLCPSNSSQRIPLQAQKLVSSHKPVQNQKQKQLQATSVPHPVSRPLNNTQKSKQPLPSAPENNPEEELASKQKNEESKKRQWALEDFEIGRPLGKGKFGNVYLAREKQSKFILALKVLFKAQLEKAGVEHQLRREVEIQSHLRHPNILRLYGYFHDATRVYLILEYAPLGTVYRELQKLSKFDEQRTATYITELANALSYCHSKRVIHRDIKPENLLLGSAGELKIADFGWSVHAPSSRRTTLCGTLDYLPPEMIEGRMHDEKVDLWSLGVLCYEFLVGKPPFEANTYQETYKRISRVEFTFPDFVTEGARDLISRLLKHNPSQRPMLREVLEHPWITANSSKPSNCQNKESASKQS

[5] = target: T3, Receptor-type tyrosine-protein kinase FLT3 (Homo sapiens, UniProt P36888); test: Inhibition of Flt3 by TR-FRET analysis
T3 sequence (P36888 whole entry): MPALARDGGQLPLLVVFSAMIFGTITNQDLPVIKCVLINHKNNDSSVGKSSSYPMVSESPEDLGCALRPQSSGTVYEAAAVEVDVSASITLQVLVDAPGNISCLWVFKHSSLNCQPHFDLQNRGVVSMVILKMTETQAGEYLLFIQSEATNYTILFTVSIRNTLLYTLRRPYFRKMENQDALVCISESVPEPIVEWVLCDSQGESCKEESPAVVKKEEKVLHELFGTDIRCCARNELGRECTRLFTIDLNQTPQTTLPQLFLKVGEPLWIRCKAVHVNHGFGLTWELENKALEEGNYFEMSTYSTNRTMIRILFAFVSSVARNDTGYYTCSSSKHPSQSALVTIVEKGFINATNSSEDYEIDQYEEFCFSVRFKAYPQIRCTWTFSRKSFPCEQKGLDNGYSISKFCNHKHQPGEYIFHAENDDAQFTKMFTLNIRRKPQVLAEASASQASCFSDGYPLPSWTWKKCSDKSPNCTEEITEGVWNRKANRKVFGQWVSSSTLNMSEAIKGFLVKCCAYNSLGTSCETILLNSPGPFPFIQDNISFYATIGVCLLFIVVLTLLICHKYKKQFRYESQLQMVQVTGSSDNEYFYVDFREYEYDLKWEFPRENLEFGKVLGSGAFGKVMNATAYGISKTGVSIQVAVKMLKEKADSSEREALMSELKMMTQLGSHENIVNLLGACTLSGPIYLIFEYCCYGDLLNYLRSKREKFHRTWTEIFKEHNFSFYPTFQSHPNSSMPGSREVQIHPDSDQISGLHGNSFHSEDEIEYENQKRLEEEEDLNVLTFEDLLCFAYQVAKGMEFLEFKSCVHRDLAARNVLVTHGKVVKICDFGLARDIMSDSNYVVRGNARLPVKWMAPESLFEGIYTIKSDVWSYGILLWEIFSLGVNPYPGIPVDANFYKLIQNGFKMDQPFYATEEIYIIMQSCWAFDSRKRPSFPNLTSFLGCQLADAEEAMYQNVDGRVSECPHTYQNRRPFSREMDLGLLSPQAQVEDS

[6] = target: Glycogen synthase kinase-3 beta (Homo sapiens, UniProt P49841); test: Inhibition of GSK3beta by TR-FRET analysis
Glycogen synthase kinase-3 beta, sequence (P49841 whole entry): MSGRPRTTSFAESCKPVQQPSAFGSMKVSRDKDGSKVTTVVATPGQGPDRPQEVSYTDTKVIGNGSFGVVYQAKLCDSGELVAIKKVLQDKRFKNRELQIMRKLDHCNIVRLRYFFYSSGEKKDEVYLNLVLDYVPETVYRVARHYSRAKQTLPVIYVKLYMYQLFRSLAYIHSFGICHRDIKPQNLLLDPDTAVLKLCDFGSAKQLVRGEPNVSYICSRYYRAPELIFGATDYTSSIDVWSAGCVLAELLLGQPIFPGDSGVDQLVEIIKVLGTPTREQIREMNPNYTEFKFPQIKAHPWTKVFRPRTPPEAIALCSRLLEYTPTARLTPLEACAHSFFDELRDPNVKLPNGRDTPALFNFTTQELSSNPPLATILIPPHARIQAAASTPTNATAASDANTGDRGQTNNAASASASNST

[7] = target: Platelet-derived growth factor receptor alpha (Homo sapiens, UniProt P16234); test: Inhibition of PDGFRalpha by TR-FRET analysis
Platelet-derived growth factor receptor alpha, sequence (P16234 whole entry): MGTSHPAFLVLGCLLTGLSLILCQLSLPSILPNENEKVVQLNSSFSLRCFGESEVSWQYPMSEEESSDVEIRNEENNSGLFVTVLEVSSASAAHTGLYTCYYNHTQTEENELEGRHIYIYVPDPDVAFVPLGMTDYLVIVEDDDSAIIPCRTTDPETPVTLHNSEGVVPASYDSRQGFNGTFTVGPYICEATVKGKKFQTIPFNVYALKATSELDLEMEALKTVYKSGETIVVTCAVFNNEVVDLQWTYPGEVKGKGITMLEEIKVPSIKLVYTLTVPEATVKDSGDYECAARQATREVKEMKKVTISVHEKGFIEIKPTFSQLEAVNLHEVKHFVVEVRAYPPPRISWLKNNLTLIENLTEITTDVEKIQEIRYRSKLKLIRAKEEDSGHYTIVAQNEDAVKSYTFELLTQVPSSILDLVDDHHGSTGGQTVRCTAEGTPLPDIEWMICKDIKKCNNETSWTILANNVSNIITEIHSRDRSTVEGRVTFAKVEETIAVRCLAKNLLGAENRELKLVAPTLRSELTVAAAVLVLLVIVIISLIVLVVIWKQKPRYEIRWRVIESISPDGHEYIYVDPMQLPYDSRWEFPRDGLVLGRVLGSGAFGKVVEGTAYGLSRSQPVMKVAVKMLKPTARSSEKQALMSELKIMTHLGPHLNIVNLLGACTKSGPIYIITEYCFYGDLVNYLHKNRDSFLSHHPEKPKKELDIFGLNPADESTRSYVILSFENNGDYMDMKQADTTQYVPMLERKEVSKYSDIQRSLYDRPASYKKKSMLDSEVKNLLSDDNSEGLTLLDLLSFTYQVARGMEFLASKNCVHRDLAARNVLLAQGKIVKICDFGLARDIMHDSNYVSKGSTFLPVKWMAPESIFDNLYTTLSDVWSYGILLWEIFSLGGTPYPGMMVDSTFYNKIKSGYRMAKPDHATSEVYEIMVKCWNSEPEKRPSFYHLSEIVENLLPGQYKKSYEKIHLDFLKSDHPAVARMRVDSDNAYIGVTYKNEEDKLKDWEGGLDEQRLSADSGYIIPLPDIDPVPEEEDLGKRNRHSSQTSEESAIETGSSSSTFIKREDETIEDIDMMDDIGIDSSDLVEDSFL

DOHH-2 = conditions: Homo sapiens
Description: Antitumor activity against human DOHH2 cells xenografted in mouse tumor model assessed as tumor growth inhibition at 10 mg/kg, ip administered Q7d for 3 weeks

Fibroblast growth factor receptor 2, sequence (P21802 whole entry): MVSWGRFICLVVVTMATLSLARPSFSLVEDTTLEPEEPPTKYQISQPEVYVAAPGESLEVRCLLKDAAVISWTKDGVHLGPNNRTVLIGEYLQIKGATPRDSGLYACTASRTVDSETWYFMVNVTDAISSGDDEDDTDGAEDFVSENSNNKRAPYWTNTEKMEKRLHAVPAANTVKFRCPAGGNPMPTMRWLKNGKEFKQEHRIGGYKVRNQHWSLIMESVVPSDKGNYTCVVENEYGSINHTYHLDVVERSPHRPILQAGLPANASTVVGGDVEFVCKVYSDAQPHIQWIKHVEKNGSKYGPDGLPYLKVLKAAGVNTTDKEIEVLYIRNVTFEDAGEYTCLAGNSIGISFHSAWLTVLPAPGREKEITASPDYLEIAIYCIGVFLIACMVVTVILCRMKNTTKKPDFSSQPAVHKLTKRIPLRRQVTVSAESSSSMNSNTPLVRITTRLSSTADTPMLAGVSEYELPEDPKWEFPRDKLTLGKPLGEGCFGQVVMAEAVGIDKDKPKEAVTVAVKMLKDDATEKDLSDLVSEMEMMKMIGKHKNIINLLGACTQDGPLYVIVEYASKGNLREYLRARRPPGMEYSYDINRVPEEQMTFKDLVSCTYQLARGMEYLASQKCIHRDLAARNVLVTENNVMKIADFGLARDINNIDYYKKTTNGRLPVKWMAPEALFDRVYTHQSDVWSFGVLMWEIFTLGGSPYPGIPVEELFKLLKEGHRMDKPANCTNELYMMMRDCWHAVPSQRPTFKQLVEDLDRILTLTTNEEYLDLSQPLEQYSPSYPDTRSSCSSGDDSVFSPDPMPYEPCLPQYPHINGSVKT

Structure (SMILES): Cn1cc(Nc2ncc(Br)c(N[C@H]3[C@@H](C(N)=O)[C@@H]4C=C[C@H]3C4)n2)cn1
- IC50 [1]: 2 nM
- IC50 [2]: 82 nM
- IC50 (Wee1-like protein kinase): 2800 nM
- EC15 (NCI-H1299): < 3 nM
- Activity (Mus musculus [3]): Toxic
- Activity (Mus musculus [4]): Toxic
- IC50 (Aurora kinase A): 3 nM
- IC50 [5]: 1 nM
- IC50 [6]: 34 nM
- IC50 [7]: 1 nM
- TGI (DOHH-2): Active
